We go through ten compounds from US20140363530A1, “COMPOSITION COMPRISING THE EXTRACT OF PINE TREE LEAF OR THE COMPOUNDS ISOLATED THEREFROM FOR THE PREVENTION AND TREATMENT OF CANCER DISEASE BY INHIBITING HPV VIRUS AND THE USES THEREBY” (priority 2012, published 2014).

Converted amounts (≈) assume the structure as drawn. Where two headings read alike, the source gives them in different places.

One series has as its system HCT15/CL02. Briefly: SRB cytotoxicity test, HCT15/CL02. Type of series: cell-based, human. Conditions: Table 4, 48 hours; for IC50: Homo sapiens, HCT-15. The protocol:
To determine the cytotoxicity against human tumor cell line of the test samples prepared in Examples, following sulforhodamin B (SRB) bioassy test was performed according to the method disclosed in the literature (Skehan, P., et al., J. Natl. […] The inoculated cell lines were incubated in CO2 incubator (MCO-20AIC, SANYO Electric Co., LTd.) to be attached on the bottom of incubator and the culture media was removed with aspirator. 6 logarithmic concentrations of the diluted test samples were added to each well containing cell line at 100 μl/well in a three fold dilution manner and the cell was incubated for 48 hours. […] The cell plates were shaked with titer plate shaker (KOMA Orbital Shaker KE011, KOMABIOTech) for 10 mins to exude the staining solution and to determine the absorbance at 520 nm using by microplate spectrophotometer (Sunrise, TECAN).
(In general: The SRB assay estimates cell density from bound dye.)

In series [1] the test system is MES-SA (human uterine carcinoma). Put plainly: SRB cytotoxicity test, MES-SA. The class given is cell-based. Conditions: for IC50: Homo sapiens, MES-SA, 48 h, read-out: Cytotoxicity IC50, MES-SA. Here is the method: (§1) To determine the cytotoxicity against human tumor cell line of the test samples prepared in Examples, following sulforhodamin B (SRB) bioassy test was performed according to the method disclosed in the literature (Skehan, P., et al., J. Natl. Cancer Inst., 82, 1990, 1107-1112).
(§2) Various human tumor cell lines, i.e., A-549 (human adenocarcinoma of lung, NCI), SK-OV-3 (human ovarian tumor, NCI), SK-MEL-2 (human malignant melanoma, NCI), HCT15 (human colon adenocarcinoma, NCI), MES-SA (human uterine carcinoma, NCI) and MES-SA/DX5 (multidrug resistant carcinoma subline of MES-SA, NCI) were used in the test.
(§3) The subcultured cell lines were detached from the surface of wall using by trypsin-EDTA solution and adjusted to various concentration of cell lines, i.e., 5×10^3 cells/well (A-549, HCT15), 1×10^4 cells/well (SK-MEL-2), 5×10^3 cells/well (SK-OV-3) in 96-well flat bottom microplate. The inoculated cell lines were incubated in CO2 incubator (MCO-20AIC, SANYO Electric Co., LTd.) to be attached on the bottom of incubator and the culture media was removed with aspirator. 6 logarithmic concentrations of the diluted test samples were added to each well containing cell line at 100 μl/well in a three fold dilution manner and the cell was incubated for 48 hours. The culture media in each well was removed and 100μ of 10% trichloroacetic acid was added thereto to be left alone at 4° C. for 1 hour and to fix the cells to the bottom of the plates. […] The cell plates were shaked with titer plate shaker (KOMA Orbital Shaker KE011, KOMABIOTech) for 10 mins to exude the staining solution and to determine the absorbance at 520 nm using by microplate spectrophotometer (Sunrise, TECAN).

The subject of series [2] is MES-SA/DX5 (multidrug resistant carcinoma subline of MES-SA). Put plainly: SRB cytotoxicity test, MES-SA/DX5. The class given is cell-based, human. The conditions noted are these: for IC50: Homo sapiens, MES-SA/Dx5, 48 h. Here is the method:
as §1, §2, §3

For a further series, the system named is HPV16 PVs. Briefly: Virus inhibition test (in vitro), SEAP activity of 293TT cells infected with HPV pseudovirion. Type of series: cell-based. Conditions: Human papillomavirus 16, read-out: inhibitory activity from HPV16 PVs. The protocol: Prior to in vitro antiviral assay, 5×10^3 of 293TT cell was seeded on 96-well plate and incubated at 37° C. for 16 hours in 5% CO2 atmosphere. The culture media was removed and each extract was diluted to the concentration of 100 μg/ml or 50 μg/ml to distribute into each cell at the dose of 100 μl/cell. After treating with the extract for 16 hours, the culture media was removed and the cell was washed with PBS twice. The cell was infected by 106RLU/ml of HPV PVs at the dose of 100 μl/cell and incubated for 48 hours at 37° C. in 5% CO2 atmosphere. To determine the viral activity, the supernatant of the cell culture was used for determine the activity of secreted alkaline phosphatase (SEAP) using by Great EscAPE™ SEAP Chemiluminescence Kit (631738, Clontech, CA, USA). To determine the SEAP activity, relative light units (RLU) value was obtained using by Luminescence coulter (Micro beta triLux 1450, PerkinElmer, CT, USA) and the RLU values of the cell treated with the extract and untreated with the extract, were compared with each other. The decrease of SEAP activity was regarded as the inhibition effect against HPV PVs.
To determine the inhibitory effect on luciferase-comprising HPV virus contagion of the test samples prepared in Examples, following test was performed according to the method disclosed in the literature (Shaneyfelt et al., Virology Journal, 3:68, 2006, 1-11; Roden et al., J. Virol., 70, 1996, 5875-5883; Unckell et al., J. Virol., 71, 1997, 2934-2939; Touze et al., Nucleic Acids Research, 26, 1998, 1317-1323; Selinka et al., J. Virol., 77, 2003, 12961-12967; Klasse et al., Journal of General Virology, 83, 2002, 2091-2108)
5×10^3293TT cell was seeded on 96-well plate and incubate for 16 hours. 50 μg of test sample was mixed with the culture media in the concentration of 100 ug/ml and incubated for 16 hours. The media was washed with 100 μl of PBS twice and the cell was infected with 10^6RLU/ml of HPV pseudovirion at the dose of 100 μl/cell to incubate at 37° C., for 48 hours in 5% CO2 atmosphere.
5× lysis buffer in Great EscAPE™ SEAP Chemiluminescence Kit (631738, Clontech, CA, USA) was made to 1× and both of 45 μl of 1× lysis buffer and 15 μl of cell culture medium were added to 96-well plate (3912, Costar, NY, USA). 60 μl of the substrate in Great EscAPE™ SEAP Chemiluminescence kit was added thereto and the relative light units (RLU) value was obtained using by Luminescence coulter (Micro beta triLux 1450, PerkinElmer, CT, USA). The RLU values of the cell treated with the extract and untreated with the extract, were compared with each other and the decrease of SEAP activity was regarded as the inhibition effect against HPV PVs.

For series [3], the system named is HCT15 (human colon adenocarcinoma). Put plainly: SRB cytotoxicity test, HCT15. The conditions noted are these: for IC50: Homo sapiens, HCT-15, 48 h, read-out: Cytotoxicity IC50, HCT15. Type of series: cell-based. The protocol:
as §1, §2, §3

The test system of series [4] is SK-MEL-2 (human malignant melanoma). Put plainly: SRB cytotoxicity test, SK-MEL-2. The class given is cell-based. Conditions: for IC50: Homo sapiens, SK-MEL-2, Table 3, 48 hours, read-out: Cytotoxicity IC50, SK-MEL-2. The protocol:
as §1, §2, §3

Series [5] relates to SK-OV-3 (human ovarian tumor). Put plainly: SRB cytotoxicity test, SK-OV-3. The conditions noted are these: for IC50: Homo sapiens, SK-OV-3, Table 3, 48 hours, read-out: Cytotoxicity IC50, SK-OV-3. The class given is cell-based. The protocol:
as §1, §2, §3

Series [6] concerns A-549 (human adenocarcinoma of lung). Put plainly: SRB cytotoxicity test, A-549. The class given is cell-based. Conditions: for IC50: Homo sapiens, A549, Table 3, 48 hours, read-out: Cytotoxicity IC50, A-549. The protocol:
as §1, §2, §3

Where [7] appears, read: read-out: Cytotoxicity IC50, MES-SA/DX5.

In the case of `C=C1CCC2[C@](C)(C(=O)O)CCC[C@]2(C)[C@H]1/C=C/C(C)=O` (stereo partly drawn) [compound (d), 13-oxo-15,16-dinorlabda-8(17),11E-dien-19-oic acid], the IC50 is 27.6 µg/mL (≈ 95.2 µM) with HCT15/CL02; more than 30 µg/mL in series [1] (Table 4, 48 hours); more than 30 µg/mL in series [2] (read-out: Cytotoxicity IC50, MES-SA/DX5, Table 4, 48 hours); more than 30 µg/mL in series [3] (Table 4, 48 hours). Further, the inhibition at 50 µg/mL with HPV16 PVs lay in the range of 70 to 80%.
Turning to `CC(C)(O)c1ccc2c(c1)CC[C@H]1[C@](C)(C(=O)O)CCC[C@]21C` [compound (k), 15-hydroxydehydroabietic acid], the IC50 was 90.7 µg/mL (≈ 286 µM) in series [1] (Table 3, 48 hours); 91.9 µg/mL (≈ 290 µM) in series [2] (setting [7]); 88.8 µg/mL (≈ 281 µM) in series [4]; 142 µg/mL (≈ 448 µM) in series [5]; 109 µg/mL (≈ 345 µM) in series [6]; 98.2 µg/mL (≈ 310 µM) in series [3] (Table 3, 48 hours). In addition, in the series with HPV16 PVs, the inhibition at 50 µg/mL is 70 to 80%.
“9,14-dihydroxytotara-7-ene-8-oic acid [compound (a)]”: the “Cytotoxicity IC50, SK-MEL-2” value in series [4] worked out at 99.45 µg/mL. The “Cytotoxicity IC50, SK-OV-3” value in series [5] was determined as 120.05 µg/mL. In series [6], the “Cytotoxicity IC50, A-549” value amounted to 127.16 µg/mL. Also, the “Cytotoxicity IC50, HCT15” value in series [3] is 117.31 µg/mL.
With `C=C1CCC2C(C)(C(=O)O)CCCC2(C)C1CCC(C)CC(=O)O` (stereo not drawn) [compound (c), ent-labd-8(17)-ene-15,18-dioic acid], the “Cytotoxicity IC50, HCT15/CL02” value with HCT15/CL02 turned out to be 21.47 µg/mL. The “Cytotoxicity IC50, MES-SA” value in series [1] is more than 30.0 µg/mL. Moreover, in series [2] (Table 4, 48 hours), the “Cytotoxicity IC50, MES-SA/DX5” value is more than 30.0 µg/mL. In series [3], the “Cytotoxicity IC50, HCT15” value was more than 30.0 µg/mL.
As for `C[C@@]1(C(=O)O)CCC[C@]2(C)c3ccc(O)cc3CCC12` (stereo partly drawn) [compound (e), 13-hydroxy-8,11,13-podocarpatrien-18-oic acid], the IC50 with HCT15/CL02 was 26.4 µg/mL (≈ 96.1 µM); in series [1] (Table 4, 48 hours) it was more than 30 µg/mL; in series [2] (setting [7]), 25.8 µg/mL (≈ 94.2 µM); in series [3] (Table 4, 48 hours), more than 30 µg/mL. For the same compound, the inhibition at 50 µg/mL in the series on HPV16 PVs lay in the range of 70 to 80%.
Take `C=C1CC[C@H]2O[C@]2(C)CC[C@@H]2[C@@H]1CC2(C)C` [compound (l), caryophyllene oxide]: the IC50 amounted to 15.2 µg/mL (≈ 69.2 µM) in series [1] (Table 3, 48 hours); 17.7 µg/mL (≈ 80.5 µM) in series [2] (setting [7]); 18.6 µg/mL (≈ 84.6 µM) in series [4]; 23.7 µg/mL (≈ 108 µM) in series [5]; 36.4 µg/mL (≈ 165 µM) in series [6]; 26.8 µg/mL (≈ 121 µM) in series [3] (Table 3, 48 hours). Further, the inhibition at 50 µg/mL with HPV16 PVs lay within 70 to 80%.
With `CC(C)(O)c1ccc2c(c1)C(=O)C[C@H]1[C@](C)(C(=O)O)CCC[C@]21C` [compound (g), 7-oxo-15-hydroxydehydroabietic acid], the IC50 was more than 30 µg/mL in the series on HCT15/CL02; more than 30 µg/mL in series [1] (Table 4, 48 hours); more than 30 µg/mL in series [2] (setting [7]); more than 30 µg/mL in series [3] (Table 4, 48 hours). For the same compound, in the series with HPV16 PVs, the inhibition at 50 µg/mL is 70 to 80%.
Consider `CC(C)c1ccc2c(c1)[C@H](O)CC1[C@](C)(C(=O)O)CCC[C@]21C` (stereo partly drawn) [compound (f), 7α-hydroxycallitirisic acid], for which the IC50 in the series on HCT15/CL02 is more than 30 µg/mL; in series [1] (Table 4, 48 hours) it was 26.8 µg/mL (≈ 84.7 µM); in series [2] (setting [7]), 27.4 µg/mL (≈ 86.7 µM); in series [3] (Table 4, 48 hours) it was more than 30 µg/mL. Besides, in the series with HPV16 PVs, the inhibition at 50 µg/mL fell in the range of 70 to 80%.
On to `C=C[C@]1(C)CCC2[C@@]3(C)CCC[C@@](C)(CO)C3CC[C@@]2(C)O1` (single isomer, unassigned; ent-18) [compound (h), ent-18-hydrorxy-13-epimanoyl oxide], for which the IC50 in series [1] (Table 3, 48 hours) amounted to 8.17 µg/mL (≈ 26.7 µM); in series [2] (setting [7]) it was 9.54 µg/mL (≈ 31.1 µM); in series [4], 11.3 µg/mL (≈ 36.7 µM); in series [5], 12.7 µg/mL (≈ 41.4 µM); in series [6], 13.3 µg/mL (≈ 43.5 µM); in series [3] (Table 3, 48 hours) it was 10 µg/mL (≈ 32.8 µM). Besides, the inhibition at 50 µg/mL in the series with HPV16 PVs is 70 to 80%.
As to `C=C1CCC2[C@](C)(C(=O)O)CCC[C@]2(C)[C@H]1CC[C@H](C)CCO` (stereo partly drawn) [compound (b), (13S)-15-hydroxylabd-8(17)-en-18-oic acid], the IC50 in the series with HCT15/CL02 is 12.8 µg/mL (≈ 39.8 µM); in series [1] (Table 4, 48 hours), 19.1 µg/mL (≈ 59.1 µM); in series [2] (setting [7]) it was 11.5 µg/mL (≈ 35.7 µM); in series [3] (Table 4, 48 hours), 20.2 µg/mL (≈ 62.5 µM). The inhibition at 50 µg/mL with HPV16 PVs is 70 to 80%.
